According to patent US11001563B2, “SSAO inhibitor” (SHANDONG DANHONG PHARMACEUTICAL CO., LTD., priority 2017, dated 2021):

Columns and labels:
[1] = Distribution of compounds in liver and blood of CD-1 mice; assay type: in vivo; settings: single oral dose
Procedure: Experimental purpose: distribution of compounds in liver and blood of CD-1 mice was tested;
CD-1 Mice (male, 25-35 g, 6-9 weeks old, Shanghai Slack);
Experimental procedure: after oral administration, the drug was distributed in the liver and blood of rodents, candidate compounds in the experiment were formulated into a clear solution to be administered to mice in a single oral dose. The oral solvent was a certain proportion of an aqueous solution of hydroxypropyl P-cyclodextrin or a physiological saline solution. The concentration of the drug in the liver and blood was measured at 1 hour and 4 hours after administration.

CYP1A2 = CYP1A2 (Homo sapiens (Human), UniProt P05177); assay: Human liver microsomal CYP inhibition assay; assay type: in vitro ADME; settings: human liver microsomes, 5-in-1 probe substrate
Sequence of CYP1A2 (P05177 whole entry): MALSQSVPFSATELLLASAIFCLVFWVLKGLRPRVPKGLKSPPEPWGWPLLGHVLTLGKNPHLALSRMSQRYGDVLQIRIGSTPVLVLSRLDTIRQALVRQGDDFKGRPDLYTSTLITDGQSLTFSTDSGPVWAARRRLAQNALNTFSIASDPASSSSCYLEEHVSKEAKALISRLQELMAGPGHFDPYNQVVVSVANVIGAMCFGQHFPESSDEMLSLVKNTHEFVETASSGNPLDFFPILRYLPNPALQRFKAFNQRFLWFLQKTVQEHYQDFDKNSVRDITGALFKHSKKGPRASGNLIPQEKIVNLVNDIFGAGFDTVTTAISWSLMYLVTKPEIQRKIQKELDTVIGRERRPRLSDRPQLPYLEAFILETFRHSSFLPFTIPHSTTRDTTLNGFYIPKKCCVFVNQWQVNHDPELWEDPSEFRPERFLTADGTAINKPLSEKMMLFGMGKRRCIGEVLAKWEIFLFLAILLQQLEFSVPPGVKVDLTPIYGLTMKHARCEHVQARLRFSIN
Procedure: (§1) The purpose of the study was to evaluate the inhibition of the test sample on human liver microsomal cytochrome P450 isozymes (CYP1A2, CYP2C9, CYP2C19, CYP2D6, and CYP3A4) by using the CYP isozyme 5-in-1 probe substrate.
(§2) Mixed human liver microsomes (HLM) were purchased from Corning Inc. (Steuben, N.Y., USA) or XenoTech, LLC. (Lenexa, Kans., USA) or other suppliers, and stored at the temperature below −70° C. prior to use.
(§3) A series of diluted test sample working solution were added to an incubation system containing cofactors of human liver microsomes, a probe substrate and a circulation system, and the control without a test substance but containing a solvent was used as enzyme activity control (100%). The concentration of the metabolite produced by the probe sample in the sample was determined by liquid chromatography-tandem mass spectrometry (LC-MS/MS). Non-linear regression analysis was performed on the concentration of the average percent activity of the test sample by using SigmaPlot (V.11). The IC50 value was calculated by a three-parameter or four-parameter recursive logarithmic equation.

CYP2C19 = CYP2C19 (Homo sapiens (Human), UniProt P33261); assay: Human liver microsomal CYP inhibition assay; assay type: in vitro ADME; settings: human liver microsomes, 5-in-1 probe substrate
Sequence of CYP2C19 (P33261 whole entry): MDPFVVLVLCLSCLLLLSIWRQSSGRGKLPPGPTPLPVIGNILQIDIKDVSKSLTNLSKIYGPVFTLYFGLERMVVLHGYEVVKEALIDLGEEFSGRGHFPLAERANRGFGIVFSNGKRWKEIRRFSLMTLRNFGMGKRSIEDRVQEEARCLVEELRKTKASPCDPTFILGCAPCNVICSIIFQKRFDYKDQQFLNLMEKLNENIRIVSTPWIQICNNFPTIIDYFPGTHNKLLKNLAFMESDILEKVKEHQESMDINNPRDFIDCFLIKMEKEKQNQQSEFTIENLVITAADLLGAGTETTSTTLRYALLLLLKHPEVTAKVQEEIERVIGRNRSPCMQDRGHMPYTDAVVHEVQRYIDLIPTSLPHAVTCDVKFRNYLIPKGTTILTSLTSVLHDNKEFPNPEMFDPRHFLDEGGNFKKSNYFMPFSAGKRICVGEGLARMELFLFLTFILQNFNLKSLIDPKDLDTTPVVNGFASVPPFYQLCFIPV
Procedure: as §1, §2, §3

CYP2C9 = CYP2C9 (Homo sapiens (Human), UniProt P11712); assay: Human liver microsomal CYP inhibition assay; assay type: in vitro ADME; settings: human liver microsomes, 5-in-1 probe substrate
Sequence of CYP2C9 (P11712 whole entry): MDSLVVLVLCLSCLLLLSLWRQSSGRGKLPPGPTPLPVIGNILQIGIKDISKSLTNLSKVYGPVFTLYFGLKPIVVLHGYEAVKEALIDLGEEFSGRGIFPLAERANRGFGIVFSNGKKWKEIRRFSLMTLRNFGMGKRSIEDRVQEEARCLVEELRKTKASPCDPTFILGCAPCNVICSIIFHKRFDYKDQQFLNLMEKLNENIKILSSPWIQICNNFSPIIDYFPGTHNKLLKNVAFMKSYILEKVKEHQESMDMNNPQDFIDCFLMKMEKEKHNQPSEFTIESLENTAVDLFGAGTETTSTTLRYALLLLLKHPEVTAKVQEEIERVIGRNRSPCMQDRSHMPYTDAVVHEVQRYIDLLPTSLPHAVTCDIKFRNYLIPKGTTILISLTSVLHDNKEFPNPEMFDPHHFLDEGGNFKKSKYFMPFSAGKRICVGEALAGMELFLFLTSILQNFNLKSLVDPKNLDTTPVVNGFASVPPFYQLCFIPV
Procedure: as §1, §2, §3

CYP2D6 = CYP2D6 (Homo sapiens (Human), UniProt P10635); assay: Human liver microsomal CYP inhibition assay; assay type: in vitro ADME; settings: human liver microsomes, 5-in-1 probe substrate
Sequence of CYP2D6 (P10635 whole entry): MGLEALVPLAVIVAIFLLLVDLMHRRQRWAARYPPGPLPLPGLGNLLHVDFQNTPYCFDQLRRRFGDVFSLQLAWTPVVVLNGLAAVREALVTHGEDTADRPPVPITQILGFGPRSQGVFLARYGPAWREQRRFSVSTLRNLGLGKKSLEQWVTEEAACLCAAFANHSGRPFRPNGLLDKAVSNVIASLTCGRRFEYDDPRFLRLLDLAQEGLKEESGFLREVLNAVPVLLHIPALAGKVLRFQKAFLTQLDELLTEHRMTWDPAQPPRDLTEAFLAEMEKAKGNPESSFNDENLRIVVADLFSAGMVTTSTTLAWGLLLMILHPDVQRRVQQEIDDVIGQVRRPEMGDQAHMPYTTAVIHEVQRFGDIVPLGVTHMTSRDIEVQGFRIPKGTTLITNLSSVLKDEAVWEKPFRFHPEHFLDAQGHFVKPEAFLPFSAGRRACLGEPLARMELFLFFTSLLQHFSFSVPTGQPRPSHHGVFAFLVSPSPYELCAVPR
Procedure: as §1, §2, §3

CYP3A4 = CYP3A4 (Homo sapiens (Human), UniProt P08684); assay: Human liver microsomal CYP inhibition assay; assay type: in vitro ADME; settings: human liver microsomes, 5-in-1 probe substrate
Sequence of CYP3A4 (P08684 whole entry): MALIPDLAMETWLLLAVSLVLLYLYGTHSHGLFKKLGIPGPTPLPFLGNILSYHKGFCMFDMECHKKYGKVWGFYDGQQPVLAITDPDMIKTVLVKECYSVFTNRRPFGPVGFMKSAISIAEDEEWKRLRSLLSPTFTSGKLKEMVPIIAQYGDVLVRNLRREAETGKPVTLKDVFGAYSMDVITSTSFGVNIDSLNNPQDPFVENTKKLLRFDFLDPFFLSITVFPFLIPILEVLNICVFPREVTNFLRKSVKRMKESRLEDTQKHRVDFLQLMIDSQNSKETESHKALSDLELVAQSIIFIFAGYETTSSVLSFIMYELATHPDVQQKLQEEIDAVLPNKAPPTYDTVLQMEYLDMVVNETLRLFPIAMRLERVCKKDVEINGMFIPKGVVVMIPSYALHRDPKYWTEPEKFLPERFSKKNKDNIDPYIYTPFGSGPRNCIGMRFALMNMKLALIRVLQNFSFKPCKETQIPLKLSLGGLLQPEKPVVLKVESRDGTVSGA
Procedure: as §1, §2, §3

VAP-1/SSAO [2] = target: T1, VAP-1/SSAO (Homo sapiens (Human), UniProt Q16853); assay: Human VAP-1 enzyme activity assay (Amplex Red Monoamine Oxidase kit); assay type: biochemical; settings: 10 nM VAP-1 enzyme, 30 min preincubation, benzylamine substrate; read-out: Human Recombinant VAP-1/SSAO Enzyme Inhibitory Activity IC50
T1 sequence (Q16853 whole entry): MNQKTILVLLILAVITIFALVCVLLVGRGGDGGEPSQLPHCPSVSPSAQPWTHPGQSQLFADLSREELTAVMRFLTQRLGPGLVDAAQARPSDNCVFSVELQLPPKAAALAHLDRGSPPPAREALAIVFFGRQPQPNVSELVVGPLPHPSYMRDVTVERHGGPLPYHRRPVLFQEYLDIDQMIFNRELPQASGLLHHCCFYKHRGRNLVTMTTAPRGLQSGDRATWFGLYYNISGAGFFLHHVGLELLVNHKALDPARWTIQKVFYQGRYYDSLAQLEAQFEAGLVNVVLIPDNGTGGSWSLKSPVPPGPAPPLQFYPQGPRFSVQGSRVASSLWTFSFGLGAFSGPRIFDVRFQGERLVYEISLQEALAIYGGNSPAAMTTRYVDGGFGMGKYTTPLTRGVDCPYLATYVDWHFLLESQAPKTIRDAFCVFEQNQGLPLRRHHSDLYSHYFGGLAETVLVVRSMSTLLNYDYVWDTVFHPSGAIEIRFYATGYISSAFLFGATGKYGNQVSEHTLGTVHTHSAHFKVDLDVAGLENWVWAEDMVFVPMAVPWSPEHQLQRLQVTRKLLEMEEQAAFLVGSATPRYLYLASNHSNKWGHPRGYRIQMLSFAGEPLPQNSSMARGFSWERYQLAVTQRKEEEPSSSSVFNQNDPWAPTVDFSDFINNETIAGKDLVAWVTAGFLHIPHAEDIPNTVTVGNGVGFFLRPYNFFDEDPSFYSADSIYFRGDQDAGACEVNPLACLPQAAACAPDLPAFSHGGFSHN
Procedure: Human VAP-1 enzyme activity assay:
The inhibition of the sample on VAP-enzyme activity was measured by using an Amplex® Red Monoamine Oxidase kit (Invitrogen #A12214). 100 nL of the gradiently-diluted to-be-tested compound (solvent DMSO) was added to a 384-well plate. 25 μL of 10 nM VAP-1 enzyme solution was added and incubated for 30 minutes at room temperature. A substrate mixture of VAP-1 enzyme (200 μM Amplex Red, 1 U/mL HRP, 1 mM Benzylamine) was added and incubated for 60 minutes at room temperature. After the incubation, the fluorescent signal was read with a microplate reader Envision (excitation light wavelength 530-560 nm, emission light wavelength 590 nm). The fluorescence signal value after the background signal was removed was analyzed by Prism software, and the IC50 of the sample against the VAP-1 enzyme was calculated.

VAP-1/SSAO [3] = target: T1, VAP-1/SSAO; assay: VAP-1 cell activity assay (HUVEC or CHO cells transfected with VAP-1/pCDNA (3.1) plasmid, Amplex Red); assay type: cell-based; settings: HUVEC or CHO cells transfected with VAP-1 plasmid; read-out: VAP-1/SSAO Cellular Inhibitory Activity IC50
Procedure: The inhibition of the sample on VAP-1 cell activity was measured by using an Amplex® Red Monoamine Oxidase kit (Invitrogen #A12214).
The cultured HUVEC or CHO cells were plated into a 6-well plate at a density of 0.8 M/well, placed in a 37° C., 5% CO2 incubator for incubation for 24 hours, and then the cells was transferred with a Lipo2000 reagent and a VAP-1/pCDNA (3.1) plasmid, and liquid was changed for the cells after 5 hours (Lipo2000 was toxic to the cells); after 24 hours, the cells were digested and plated into 384-well plates with a density of 25 μl, 10000 cells/well, and liquid was replaced with medium without FBS for the cells after 6-7 hours, and the cell plates were incubated overnight at 37° C. in a 5% CO2 incubator.
1) Dilution of the compound: serial dilution in 4× gradient was carried out with 100% DMSO, 10 points were diluted, the starting concentration of the to-be-tested compound was 0.5 mM (final concentration was 1 μM); 100 nl of compound solution was transferred to a 384-well cell assay plate with ECHO. Negative control wells: 100 nl of DMSO; background control wells: 100 nl DMSO+25 μL medium.
2) The reaction was carried out in the dark at room temperature for 30 min.
3) Preparation of Amplex Red reagent+HRP+benzylamine substrate working solution: Amplex Red reagent+HRP+benzylamine substrate working solution (200 μM Amplex Red reagent+1 U/mL HRP+1 mM benzylamine): 45 μl of 20 mM Amplex Red reagent mother solution, 22.5 μl of 200 U/ml horseradish peroxidase (HRP) mother solution and 45 ul of 100 mM benzylamine were tanken and added to 4.3875 ml of 1× reaction buffer.
4) After 30 min, 25 μl of the substrate working solution was added to a 384-well plate, and a final concentration was 100 μM Amplex Red reagent+0.5 U/mL HRP+0.5 mM benzylamine, respectively.
5) The reaction was carried out in the dark at room temperature for 60 minutes, and the fluorescence value was measured by Envision: the excitation wave was 535 nm, and the emission wave was 590 nm.
6) Inhibition rate calculation formula: % inhibition rate=(1−(test hole minus background−positive control well minus background)/(negative control well minus background-positive control well minus background))*100
7) The data were analyzed with Prism. The IC50 of the sample against VAP-1 cells was calculated.

hERG potassium channel = hERG potassium channel (Homo sapiens (Human), UniProt Q12809); assay: Inhibition test of hERG potassium ion channel (automatic patch clamp, CHO-hERG cells); assay type: cell-based
Sequence of hERG potassium channel (Q12809 whole entry): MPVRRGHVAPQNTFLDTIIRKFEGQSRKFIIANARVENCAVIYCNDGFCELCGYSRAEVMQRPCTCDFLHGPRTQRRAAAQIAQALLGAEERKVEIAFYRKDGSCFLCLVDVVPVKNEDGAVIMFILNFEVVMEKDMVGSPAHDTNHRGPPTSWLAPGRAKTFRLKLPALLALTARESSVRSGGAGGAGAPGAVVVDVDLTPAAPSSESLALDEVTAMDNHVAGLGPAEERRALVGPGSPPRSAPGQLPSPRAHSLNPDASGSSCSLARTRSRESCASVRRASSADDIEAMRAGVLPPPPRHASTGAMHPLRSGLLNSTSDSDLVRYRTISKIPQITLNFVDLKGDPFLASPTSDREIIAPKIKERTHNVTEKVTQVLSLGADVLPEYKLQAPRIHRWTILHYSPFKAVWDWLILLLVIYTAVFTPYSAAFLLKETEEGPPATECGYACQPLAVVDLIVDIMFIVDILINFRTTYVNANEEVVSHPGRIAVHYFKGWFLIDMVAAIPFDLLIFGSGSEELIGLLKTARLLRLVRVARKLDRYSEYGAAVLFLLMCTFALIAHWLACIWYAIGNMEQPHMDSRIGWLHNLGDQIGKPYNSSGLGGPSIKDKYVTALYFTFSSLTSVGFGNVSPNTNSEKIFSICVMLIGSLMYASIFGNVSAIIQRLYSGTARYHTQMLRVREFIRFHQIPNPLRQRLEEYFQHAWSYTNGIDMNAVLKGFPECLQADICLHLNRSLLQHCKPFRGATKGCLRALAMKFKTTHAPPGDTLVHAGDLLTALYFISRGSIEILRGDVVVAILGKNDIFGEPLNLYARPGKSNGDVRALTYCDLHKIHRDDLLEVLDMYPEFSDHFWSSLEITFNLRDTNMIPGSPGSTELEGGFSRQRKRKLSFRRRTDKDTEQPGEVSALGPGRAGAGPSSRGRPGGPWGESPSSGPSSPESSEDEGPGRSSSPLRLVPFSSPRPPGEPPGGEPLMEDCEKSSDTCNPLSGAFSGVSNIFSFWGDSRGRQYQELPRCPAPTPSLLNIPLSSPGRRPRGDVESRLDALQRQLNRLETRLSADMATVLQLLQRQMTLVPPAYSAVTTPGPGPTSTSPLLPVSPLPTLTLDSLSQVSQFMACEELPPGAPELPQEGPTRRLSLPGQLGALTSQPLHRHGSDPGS
Procedure: The effect of the to-be-tested compound on the potassium ion channel of hERG was detected by a fully automatic patch clamp method.
The cells stably expressing hERG potassium channel used in the experiment were obtained from CHO-hERE of Aviva Biosciences, and CHO-hERG was cultured in 5% CO2 at 37° C.
CHO-hERG cells prepared for the experiment were cultured for at least two days, and the cell density reached 75% or more. Prior to the start of the experiment, cells were digested with TrypLE and then resuspended in extracellular fluid to collect the cells.
The to-be-tested compound and the positive control Amitriptyline were dissolved in DMSO to a certain concentration of the stock solution, and then diluted according to different gradients, and finally added to the extracellular fluid in a certain ratio, and diluted to a concentration to be measured. Visual inspection was performed to see if there was any precipitation before the start of the experiment. Finally, the concentration of DMSO in the to-be-tested solution and the positive control Amitriptyline should not exceed 0.3%.
The clamping potential was kept at −80 mv, first a voltage stimulation of −50 mv was given for 80 ms to record the cell leakage current value, and then was depolarized to +20 mv to be maintained for 4800 ms, the channel of hERG was open, and then repolarized to −50 mv to be maintained 5000 ms, hERG tail current was led out and recorded, and finally, the voltage was returned to the clamping potential of −80 mv to be maintained for 3100 ms. The above voltage stimulation was repeated once every 15000 ms.
hERG QPatch^HTX experiment was performed at room temperature. A whole cell protocol, a voltage stimulation protocol and a compound detection protocol were established on the software of QPatch Assay Software 5.2 (Sophion Bioscience).
First, 30 repeated set voltage stimulations were performed, which was the baseline area for subsequent analysis, followed by the addition of 5 μl of extracellular fluid, repeated for three times. The concentration of each compound added in sequence was repeated three times in a volume of 5 μl. The cells were incubated for at least 5 min at each test concentration. During the entire recording process, the indicators needed to meet the data analysis acceptance criteria. If the standard was not met, the cells would not be included in the analysis scope, and the compounds would be retested. The above recording process was automatically operated by Qpatch analysis software. […]
In each complete current record, based on the percentage of peak current in the negative control, the percent inhibition of the concentration of each compound can be calculated. […]

SMILES | Liver Concentration ([1]; @1.0 hour) | Liver Concentration/Plasma Concentration ratio ([1]; @1.0 hour) | Plasma Concentration ([1]; @1.0 hour) | Liver Concentration ([1]; @4.0 hour) | Liver Concentration/Plasma Concentration ratio ([1]; @4.0 hour) | Plasma Concentration ([1]; @4.0 hour) | IC50 (CYP1A2) | IC50 (CYP2C19) | IC50 (CYP2C9) | IC50 (CYP2D6) | IC50 (CYP3A4) | IC50 (VAP-1/SSAO [2]) | IC50 (VAP-1/SSAO [3]) | IC50 (hERG potassium channel; QPatch whole cell patch clamp, CHO-hERG, 0.24-30.00 μM) | Inhibition of hERG potassium current (in words) (hERG potassium channel; conclusion statement)
CC(C)(C)NC(=O)c1ccc(OC/C(=C/F)CN)cc1.Cl [PXS-4728A, reference compound] | 13140 | 10 | 1470 | 2120 | 14 | 154 | 9 µM | 76 µM | 32 µM | 38 µM | > 50 µM | – | – | – | –
Cc1noc(-c2ccc(OC/C(=C/F)CN)cc2)n1.Cl [WX008] | – | – | – | – | – | – | – | – | – | – | – | 0.0004 µM | 0.0003 µM | > 30 µM | weak inhibition
NC/C(=C\F)COc1ccc(-c2nc(CC(F)(F)F)n[nH]2)cc1 [WX101] | – | – | – | – | – | – | – | – | – | – | – | 0.0004 µM | 0.0004 µM | – | –
